The source of these data is ChEMBL document CHEMBL1134178, “Cytotoxic Michael-type amine adducts of alpha-methylene lactones alantolactone and isoalantolactone” (Bioorg Med Chem Lett, 2001).

In experiment [1] the test system is K562. The experiment in a line: Effect on cell cycle distribution of K562 cells following treatment of 10 x IC50 for 16 hours and percentage of apoptotic cells (cells with DNA content less than cells in G1 phase) was reported. Type of experiment: functional, Homo sapiens.
Experiment [2] relates to K562. The experiment in a line: Effect on cell cycle distribution of K562 cells following treatment of 10 x IC50 for 16 hours and percentage of cells in G2/M phase was reported. In kind it is functional, Homo sapiens.
The subject of experiment [3] is K562. The experiment in a line: In vitro inhibitory activity against K562 human leukemia cell line. Type of experiment: functional, cell-based.
The test system of experiment [4] is K562. The experiment in a line: Effect on cell cycle distribution of K562 cells following treatment of 10 x IC50 for 16 hours and percentage of cells in S phase was reported. In kind it is functional, Homo sapiens.
The subject of experiment [5] is K562. The experiment in a line: Effect on cell cycle distribution of K562 cells following treatment of 10 x IC50 for 16 hours and c.v. value was reported. Type of experiment: functional, Homo sapiens.
The subject of experiment [6] is K562. The experiment in a line: Evaluated for the effect on cell cycle distribution of K562 cells following treatment of 10 x IC50 for 16 hours and percentage of cells in G1 phase was reported. In kind it is functional, Homo sapiens.
Experiment [7] concerns A549. The experiment in a line: Inhibitory activity against A549 lung cancer cell line. In kind it is functional. The conditions noted are these: Homo sapiens, read-out: ID50 (the source's name).
Experiment [8] has as its system COLO. The experiment in a line: Inhibitory activity against COLO skin melanoma cell line. In kind it is functional. As to conditions: Homo sapiens, read-out: ID50 (the source's name).
Experiment [9] is described as follows: Inhibitory activity against FF1 normal skin cells. As to conditions: Homo sapiens, read-out: ID50 (the source's name). In kind it is functional.
The subject of experiment [10] is NCI-H520. The experiment in a line: Inhibitory activity against H520 lung cancer cell line. In kind it is functional. As to conditions: Homo sapiens, read-out: ID50 (the source's name).
In experiment [11] the test system is NCI-H460. The experiment in a line: Inhibitory activity against H460 lung cancer cell line. The conditions noted are these: Homo sapiens, read-out: ID50 (the source's name). Type of experiment: functional.
Experiment [12] concerns K562. The experiment in a line: Inhibitory activity against K562 human leukemia cell line. As to conditions: read-out: ID50 (the source's name). In kind it is functional.
Experiment [13] concerns MCF7. The experiment in a line: Inhibitory activity against MCF-7 breast cancer cell line. In kind it is functional. The conditions noted are these: Homo sapiens, read-out: ID50 (the source's name).
In experiment [14] the test system is P388. The experiment in a line: Inhibitory activity against P388 mouse leukemia cell line. Type of experiment: functional. The conditions noted are these: read-out: ID50 (the source's name).
Experiment [15] has as its system WiDr. The experiment in a line: Inhibitory activity against WiDR colon adenocarcinoma cell line. Type of experiment: functional. The conditions noted are these: Homo sapiens, read-out: ID50 (the source's name).
Experiment [16] concerns BT-20. The experiment in a line: Inhibitory activity against BT20 breast cancer cell line. In kind it is functional. The conditions noted are these: Homo sapiens, read-out: ID50 (the source's name).

Take `CCN(CC)C[C@@H]1C(=O)O[C@@H]2C[C@@]3(C)CCC[C@H](C)C3=C[C@H]12`: in experiment [1], the Activity was 7.3%. Besides, the G2/M in [2] is 10%. Moreover, the IC50 in experiment [3] amounted to 700 nM. In experiment [4], this molecule gave an S of 52%. The same molecule displayed a c.v in experiment [5] of 7. Also, the G1 in experiment [6] was determined as 38%.

Regarding `C=C1CCC[C@]2(C)C[C@H]3OC(=O)[C@@H](CN(CCC)CCC)[C@H]3C[C@@H]12`, in experiment [3], the IC50 was 5000 nM.

Turning to `C=C1CCC[C@]2(C)C[C@H]3OC(=O)[C@@H](CN(C)C)[C@H]3C[C@@H]12`, in experiment [3], the IC50 amounted to 3000 nM.

`C=C1CCC[C@]2(C)C[C@H]3OC(=O)[C@@H](CN4CCCCC4)[C@H]3C[C@@H]12` registered an IC50 in experiment [3] of 5000 nM.

On to `C=C1CCC[C@]2(C)C[C@H]3OC(=O)[C@@H](CN(CC)CC)[C@H]3C[C@@H]12`, for which the IC50 stood at 800 nM in [7]; 3500 nM in [8]; 1000 nM in experiment [9]; 900 nM in [10]; 600 nM in experiment [11]; 2000 nM in [12]. Besides, the IC50 in experiment [3] is 2000 nM; in experiment [13] it was 800 nM; in experiment [14], 300 nM; in experiment [15], 1500 nM; in experiment [16] it was 1200 nM. Moreover, in [1], the Activity turned out to be 4.4%. In [2], this molecule returned a G2/M of 10%. Moreover, the S in [4] amounted to 52%. The molecule also showed a c.v in experiment [5] of 4.3. In experiment [6], the G1 came out at 39%.

In experiment [3], `C=C1CCC[C@]2(C)C[C@H]3OC(=O)[C@@H](CN(C)C(C)C(O)c4ccccc4)[C@H]3C[C@@H]12` (stereo partly specified) came in with an IC50 of 3000 nM.

Regarding `C[C@H]1CCC[C@]2(C)C[C@H]3OC(=O)[C@@H](CN(C)C)[C@H]3C=C12`, in experiment [3], the IC50 stood at 2000 nM.

In [3], `C=C1CCC[C@]2(C)C[C@H]3OC(=O)[C@@H](CN4CCCC4)[C@H]3C[C@@H]12` gave an IC50 of 5000 nM.

Take `C=C1CCC[C@]2(C)C[C@H]3OC(=O)[C@@H](CN(C)CCO)[C@H]3C[C@@H]12`: in experiment [3], the IC50 was 4000 nM.

As for `C=C1C(=O)O[C@@H]2C[C@@]3(C)CCCC(=C)[C@@H]3C[C@H]12` [ISOALANTOLACTONE], the IC50 was 600 nM in [7]; 2100 nM in experiment [8]; 1100 nM in experiment [9]; 900 nM in [10]; 600 nM in experiment [11]; 1200 nM in experiment [12]. In addition, the IC50 in experiment [3] was determined as 1200 nM; in [13], 600 nM; in experiment [14], 400 nM; in experiment [15], 1400 nM; in [16] it was 1200 nM. Also, the Activity in experiment [1] worked out at 8.2%. In addition, in experiment [2], the G2/M was determined as 12%. Besides, in experiment [4], the S was determined as 50%. In experiment [5], the c.v was 3.2. In [6], the “growth inhibition (GI)” value stood at 38%.

`C[C@H]1CCC[C@]2(C)C[C@H]3OC(=O)[C@@H](CN4CCCCC4)[C@H]3C=C12` returned an IC50 in [3] of 2000 nM.

Regarding `C=C1CCC[C@]2(C)C[C@H]3OC(=O)[C@@H](CNCc4ccccc4)[C@H]3C[C@@H]12`, the IC50 in experiment [3] came out at 15000 nM.

`C=C1C(=O)O[C@@H]2C[C@@]3(C)CCC[C@H](C)C3=C[C@H]12` [HELENINE] had an Activity in [1] of 9.9%. Also, the G2/M in [2] is reported as 17%. This molecule showed an IC50 in experiment [3] of 700 nM. The S in [4] is given as 53%. The molecule also registered a c.v in experiment [5] of 3.4. For the same molecule, the “growth inhibition (GI)” value in experiment [6] was 30%.

In experiment [3], `C=C1CCC[C@]2(C)C[C@H]3OC(=O)[C@@H](CNCCCN(C)C)[C@H]3C[C@@H]12` yielded an IC50 of 6000 nM.

With `C=C1CCC[C@]2(C)C[C@H]3OC(=O)[C@@H](CNC)[C@H]3C[C@@H]12`, the IC50 in experiment [3] was found to be 24000 nM.

`C=C1CCC[C@]2(C)C[C@H]3OC(=O)[C@@H](CN4CCOCC4)[C@H]3C[C@@H]12`: the IC50 in [3] worked out at 5000 nM.
